Test results as given in patent publication US7435837B2, “Dihydrobenzofuranyl alkanamine derivatives and methods for using same” (Wyeth, priority 2003, dated 2008).

Tests used:
[1] = target: T1, human 5-hydroxytryptamine-2C (h5-HT2C) receptor (Homo sapiens, UniProt P28335); experiment: [125I]DOI binding to membranes of CHO cells expressing the human 5-HT2C receptor; settings: [125I]DOI radioligand, CHO cell membranes, room temperature 60 min; read-out: 5-HT2C Affinity Ki
T1 construct: expressed in transfected cells; host or cells: CHO (Chinese Hamster Ovary) cells; membranes
T1 sequence (P28335 33-458): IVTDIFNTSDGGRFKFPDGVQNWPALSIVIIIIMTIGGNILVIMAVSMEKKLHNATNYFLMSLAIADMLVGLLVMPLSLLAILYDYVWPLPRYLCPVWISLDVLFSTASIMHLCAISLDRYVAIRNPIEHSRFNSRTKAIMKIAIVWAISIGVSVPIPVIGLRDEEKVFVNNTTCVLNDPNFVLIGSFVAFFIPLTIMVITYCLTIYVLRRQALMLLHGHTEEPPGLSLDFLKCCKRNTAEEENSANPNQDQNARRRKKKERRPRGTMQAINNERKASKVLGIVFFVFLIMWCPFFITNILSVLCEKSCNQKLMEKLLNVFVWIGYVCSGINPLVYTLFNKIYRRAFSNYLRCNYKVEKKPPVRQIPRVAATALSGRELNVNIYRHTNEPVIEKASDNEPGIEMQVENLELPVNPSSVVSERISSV

human 5-HT2C receptor = target: T2, human 5-HT2C receptor (Homo sapiens, UniProt P28335); experiment: 5-HT2C receptor-stimulated calcium mobilization (FLIPR) in CHO cells; format: cell-based; settings: for Emax: CHO, read-out: 5-HT2C Function Emax (%); for Emax / 5-HT2C Function Emax (%): percentage of the response observed with a maximally effective concentration of 5-HT; for EC50: calcium mobilization, CHO cells stably expressing human 5-HT2C, read-out: 5-HT2C Function EC50;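 on all read-outs here: Fluo-3-AM fluorescence read on FLIPR every 1 s, agonist added after 10 baseline reads, response taken as peak minus lowest raw fluorescence count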
T2 sequence (P28335 33-458): T1 sequence (P28335 33-458)

Compound | Ki [1] [nM] | Emax (human 5-HT2C receptor) [%] | EC50 (human 5-HT2C receptor) [nM] | 5-HT2C Function Emax (%) (human 5-HT2C receptor)
NCC1Cc2cc(Cl)cc(-c3ccc(Cl)cc3Cl)c2O1 (single isomer, unassigned; (-)) [Example 252, (−)-{[5-chloro-7-(2,4-dichlorophenyl)-2,3-dihydro-1-benzofuran-2-yl]methyl}amine] | 1.1 | 100 | 3 | 
COc1cc2c(c(-c3c(C)cccc3C)c1)OC(CN)C2 (racemic) [Example 374, (±)-{[7-(2,6-dimethylphenyl)-5-methoxy-2,3-dihydro-1-benzofuran-2-yl]methyl}amine] | 0.6 | 100 | 19 | 
NCC1Cc2cccc(C3CCCC3)c2O1 (single isomer, unassigned; (-)) [Example 9, (−)-(7-cyclopentyl-2,3-dihydro-1-benzofuran-2-yl)methylamine] | 10 |  | 194 | 85
Cc1ccccc1-c1cc(C(C)C)cc2c1OC(CN)C2 (racemic) [Example 307, (±)-{[5-isopropyl-7-(2-methylphenyl)-2,3-dihydro-1-benzofuran-2-yl]methyl}amine] | 1 | 90 | 49 | 
Cc1cccc(C)c1-c1cccc2c1OC(CN)C2 (single isomer, unassigned; (+)) [Example 58, (+)-1-[7-(2,6-dimethylphenyl)-2,3-dihydro-1-benzofuran-2-yl]methanamine] | 9 |  | 313 | 60
COc1ccc(OC)c(-c2cccc3c2OC(CN)C3)c1 (racemic) [Example 162, (±)-{[7-(2,5-dimethoxyphenyl)-2,3-dihydro-1-benzofuran-2-yl]methyl}amine] | 13 | 100 | 24 | 
Cc1ccc(-c2cc(C)cc3c2OC(CN)C3)cc1 (racemic) [Example 290, (±)-{[7-(4-methylphenyl)-5-methyl-2,3-dihydro-1-benzofuran-2-yl]methyl}amine] | 1.7 | 80 | 58 | 
CNCC1Cc2cccc(-c3ccccc3Cl)c2O1 (single isomer, unassigned; (-)) [Example 411, (−)-N-methyl-1-[7-(2-chlorophenyl)-2,3-dihydro-1-benzofuran-2-yl]methanamine] | 2.6 |  | 57 | 80
CN(C)CC1Cc2cc(F)cc(-c3c(Cl)cccc3Cl)c2O1 (racemic) [Example 237, (±)-{[7-(2,6-dichlorophenyl)-5-fluoro-2,3-dihydro-1-benzofuran-2-yl]methyl}dimethylamine] | 0.57 | 80 | 3 | 
NCC1Cc2cc(F)cc(-c3cccc(Cl)c3Cl)c2O1 (racemic) [Example 211, (±)-{[7-(2,3-dichlorophenyl)-5-fluoro-2,3-dihydro-1-benzofuran-2-yl]methyl}amine] | 19 | 70 | 672 | 
CNCC1Cc2cc(F)cc(-c3cc(OC)ccc3C)c2O1 (racemic) [Example 456, (±)-{[5-fluoro-7-(5-methoxy-2-methylphenyl)-2,3-dihydro-1-benzofuran-2-yl]methyl}methylamine] | 4.1 | 100 | 50 | 
CNCC1Cc2cccc(-c3c(Cl)cc(Cl)cc3Cl)c2O1 (racemic) [Example 555, (±)-{N-methyl-1-[(7-(2,4,6-trichlorophenyl)-2,3-dihydro-1-benzofuran-2-yl]methanamine] | 0.6 | 80 | 4 | 
NCC1Cc2cc(Cl)cc(-c3c(Cl)cccc3Cl)c2O1 (racemic) [Example 263, (±)-{[5-chloro-7-(2,6-dichlorophenyl)-2,3-dihydro-1-benzofuran-2-yl]methyl}amine] | 1.8 | 100 | 0.8 | 
CNCC1Cc2cc(C)cc(-c3ccccc3F)c2O1 (racemic) [Example 475, (±)-{[7-(2-fluorophenyl)-5-methyl-2,3-dihydro-1-benzofuran-2-yl]methyl}methylamine] | 3.2 | 80 | 25 | 
